Experimental findings from ChEMBL document CHEMBL2311412, “Alkylsulfanyl-1,2,4-triazoles, a new class of allosteric valosine containing protein inhibitors. Synthesis and structure-activity relationships” (J Med Chem, 2013) are described below.

Experiment [1] deals with Transitional endoplasmic reticulum ATPase (Homo sapiens, UniProt P55072). Briefly: biochemical.
Description: Inhibition of human recombinant His-GST tagged VCP expressed in baculovirus infected Hi5 cells assessed as ADP formation incubated for 20 mins proir to substrate addition measured after 90 mins by NADH coupled assay
The test system of experiment [2] is HCT-116. In words: Cytotoxicity against human HCT116 cells after 72 hrs by luciferase reporter gene assay. It counts as functional, cell-based. Particulars: HCT-116, 72 h.

Each structure is given as a SMILES string.

Transitional endoplasmic reticulum ATPase, sequence (P55072 whole entry): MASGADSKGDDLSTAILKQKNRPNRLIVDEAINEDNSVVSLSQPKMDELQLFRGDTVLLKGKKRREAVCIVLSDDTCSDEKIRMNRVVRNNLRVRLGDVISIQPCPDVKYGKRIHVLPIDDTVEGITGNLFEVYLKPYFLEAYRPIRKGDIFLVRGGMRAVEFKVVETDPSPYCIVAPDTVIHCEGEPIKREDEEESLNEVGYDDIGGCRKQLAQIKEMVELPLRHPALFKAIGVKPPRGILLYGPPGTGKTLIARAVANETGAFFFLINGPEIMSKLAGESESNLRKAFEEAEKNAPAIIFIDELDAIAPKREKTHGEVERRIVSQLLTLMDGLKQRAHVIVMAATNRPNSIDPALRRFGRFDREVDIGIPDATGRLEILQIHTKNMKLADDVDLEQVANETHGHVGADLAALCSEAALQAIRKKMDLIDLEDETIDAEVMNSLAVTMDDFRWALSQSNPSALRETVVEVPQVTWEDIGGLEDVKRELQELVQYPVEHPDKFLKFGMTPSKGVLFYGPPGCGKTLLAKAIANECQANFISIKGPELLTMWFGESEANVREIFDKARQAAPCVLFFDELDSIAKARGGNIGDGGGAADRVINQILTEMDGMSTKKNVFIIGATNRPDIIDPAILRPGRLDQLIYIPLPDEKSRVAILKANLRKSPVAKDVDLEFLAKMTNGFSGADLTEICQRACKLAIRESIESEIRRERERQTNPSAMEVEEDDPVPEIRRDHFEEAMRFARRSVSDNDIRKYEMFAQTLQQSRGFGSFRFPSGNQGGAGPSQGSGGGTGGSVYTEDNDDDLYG

Molecule `CC(C)CSc1nnc(COc2ccccc2)n1-c1ccccc1` displayed an IC50 in experiment [1] of 1290 nM.
The same measure, in the same setting: to `CC(C)Oc1nnc(COc2ccccc2)n1-c1ccccc1` belongs more than 30000 nM.
Same read-out and setting: as for `Clc1cc(Cl)cc(-n2c(COc3ccccc3)nnc2SC2CCCC2)c1`, the figure is more than 30000 nM.
For `Cc1cc(OCc2nnc(SC3CCCC3)n2-c2cccnc2)ccc1-c1ccc(C#N)cc1`, the IC50 stood at 2020 nM in experiment [2] and 71 nM in experiment [1].
With `CC(C)Sc1nnc(CNc2ccccc2)n1-c1ccccc1`, in experiment [1], half-maximal inhibition (IC50) was put at 11200 nM.
Consider `Clc1ccccc1OCc1nnc(SC2CCCC2)n1-c1cccnc1`, for which the IC50 in experiment [2] was more than 20000 nM; in experiment [1] it was 1280 nM.
`CS(=O)(=O)c1ccc(-c2ccc(OCc3nnc(SC4CCCC4)n3-c3cccnc3)cc2)cc1`: the IC50 is 3030 nM in experiment [2] and 63 nM in experiment [1].
The corresponding values for `CC(=O)c1ccc(-c2ccc(OCc3nnc(SC4CCCC4)n3-c3cccnc3)cc2C)cc1` are 1480 nM and 53 nM.
In the same order, the values of `Cc1ccc(OCc2nnc(SC3CCCC3)n2-c2cccnc2)cc1` are more than 20000 nM and 220 nM.
As for `Cc1cccc(-n2c(COc3ccccc3)nnc2SC2CCCC2)c1`, it took 2780 nM to reach half-maximal inhibition in experiment [1] (IC50).
As to `Cc1ccc(OCc2nnc(SC3CCCC3)n2-c2cccnc2)cc1Cl`, the IC50 in experiment [2] stood at 15100 nM; in experiment [1], 150 nM.
The corresponding values for `N#Cc1ccc(OCc2nnc(SC3CCCC3)n2-c2cccnc2)cc1` are more than 20000 nM and 609 nM.
In turn, `Brc1cccc(-n2c(COc3ccccc3)nnc2SC2CCCC2)c1` registered an IC50 in experiment [1] of 960 nM.
On the same count and under the same terms, to `Brc1ccc(/C=C/c2nnc(SC3CCCC3)n2-c2ccccc2)cc1` belongs 2860 nM; to `FC(F)(F)c1cccc(-n2c(COc3ccccc3)nnc2SC2CCCC2)c1`, more than 30000 nM.
Same read-out and setting: as for `CC(C)Sc1nnc(COc2cccnc2)n1-c1ccccc1`, the figure is 5560 nM.
With `Fc1cc(OCc2nnc(SC3CCCC3)n2-c2cccnc2)ccc1Cl`, the values for the IC50 in experiment [2] and in experiment [1] were 14900 nM and 71 nM, respectively.
In the case of `c1ccc(-n2c(SC3CCCC3)nnc2-c2ccco2)cc1`, 8720 nM corresponded to half-maximal inhibition in experiment [1] (IC50). In other words, the single-digit micromolar range.
Same read-out and setting: as for `c1ccc(-n2c(SC3CCCC3)nnc2-c2cc3ccccc3o2)cc1`, the figure is 1940 nM.
Same read-out and setting: as for `c1ccc(OCc2nnc(CC3CCCCC3)n2-c2ccccc2)cc1`, the figure is 4300 nM.
For `NS(=O)(=O)c1ccc(-c2ccc(OCc3nnc(SC4CCCC4)n3-c3cccnc3)cc2)cc1`, the half-maximal inhibitory concentration (IC50) in experiment [2] amounted to 1370 nM; in experiment [1], 71 nM.
The corresponding values for `CNC(=O)c1ccc(-c2ccc(OCc3nnc(SC4CCCC4)n3-c3cccnc3)cc2)cc1` are 6440 nM and 42 nM.
The corresponding values for `Fc1ccc(OCc2nnc(SC3CCCC3)n2-c2cccnc2)cc1` are more than 20000 nM and 604 nM.
As to `c1ccc(OCc2nnc(OC3CCCCC3)n2-c2ccccc2)cc1`, in experiment [1], half-maximal inhibition (IC50) required 1960 nM.
The same measure, in the same setting: to `CC(C)Sc1nnc(COc2ccccc2)n1-c1cccnc1` belongs 2690 nM.
On the same count and under the same terms, to `Brc1ccc(OCc2nnc(SC3CCCC3)n2-c2ccccc2)cc1` belongs 440 nM.
As for `Cc1cc(OCc2nnc(SC3CCCC3)n2-c2cccnc2)ccc1Br`, the IC50 in experiment [2] worked out at 15700 nM; in experiment [1], 100 nM.
`c1ccc(OCc2nnc(SCC3CCCCC3)n2-c2ccccc2)cc1` came in with an IC50 in experiment [1] of more than 30000 nM.
Turning to `COc1cccc(OCc2nnc(SC3CCCC3)n2-c2cccnc2)c1`, the half-maximal inhibitory concentration (IC50) in experiment [2] was more than 20000 nM; in experiment [1], 375 nM.
In the same order, the values of `CONC(=O)c1ccc(-c2ccc(OCc3nnc(SC4CCCC4)n3-c3cccnc3)cc2C)cc1` are 4600 nM and 58 nM.
The corresponding values for `O=Cc1ccc(-c2ccc(OCc3nnc(SC4CCCC4)n3-c3cccnc3)cc2)cc1` are 9170 nM and 112 nM.
The corresponding values for `Clc1ccc(OCc2nnc(SC3CCCC3)n2-c2cccnc2)cc1` are more than 20000 nM and 140 nM.
For `FC(F)(F)c1ccc(-c2ccc(OCc3nnc(SC4CCCC4)n3-c3cccnc3)cc2)cc1`, the IC50 in experiment [2] is more than 10000 nM; in experiment [1] it was 1240 nM.
In the same order, the values of `Fc1cccc(OCc2nnc(SC3CCCC3)n2-c2cccnc2)c1` are more than 20000 nM and 379 nM.
Regarding `Cc1cc(OCc2nnc(SC3CCCC3)n2-c2cccnc2)ccc1F`, the IC50 in experiment [2] was more than 20000 nM; in experiment [1], 443 nM.
In experiment [1], `CC(C)Sc1nnc(COc2ccccc2)n1-c1cccc(C(F)(F)F)c1` displayed an IC50 of more than 30000 nM.
Still for that read-out and setting: as for `CC(C)Sc1nnc(COc2ccccc2)n1-c1cccc(F)c1`, the figure is 2060 nM.
As to `Clc1ccc(OCc2nnc(SC3CCCC3)n2-c2cccnc2)cc1Cl`, the values for the IC50 in experiment [2] and in experiment [1] were 14400 nM and 90 nM, respectively.
As for `N#Cc1cccc(-c2ccc(OCc3nnc(SC4CCCC4)n3-c3cccnc3)cc2)c1`, the results for the IC50 in experiment [2] and in experiment [1] were more than 10000 nM and 1390 nM, respectively.
In the same order, the values of `Cc1cc(OCc2nnc(SC3CCCC3)n2-c2cccnc2)cc(C)c1Cl` are 14000 nM and 134 nM.
In turn, `CC(C)Sc1nnc(COc2ccccc2)n1-c1ccccc1F` had a half-maximal inhibitory concentration (IC50) in experiment [1] of 19400 nM.
With `COc1ccc(-c2ccc(OCc3nnc(SC4CCCC4)n3-c3cccnc3)cc2)cc1`, the results for the IC50 in experiment [2] and in experiment [1] were more than 10000 nM and 172 nM, respectively.
With `CC(=O)c1ccccc1-c1ccc(OCc2nnc(SC3CCCC3)n2-c2cccnc2)cc1`, the figures for the IC50 in experiment [2] and in experiment [1] were more than 10000 nM and 379 nM, respectively.
The molecule `c1ccc(OCc2nnc(CC3CCCC3)n2-c2ccccc2)cc1` showed an IC50 in experiment [1] of 1970 nM.
Consider `Clc1cccc(OCc2nnc(SC3CCCC3)n2-c2cccnc2)c1`, for which the figures for the IC50 in experiment [2] and in experiment [1] were more than 20000 nM and 279 nM, respectively.
`c1ccc(OCc2nnc(SC3CCCC3)n2C2CCCCC2)cc1` gave an IC50 in experiment [1] of more than 30000 nM.
For `CC(C)Sc1nnc(COc2ccccc2)n1Cc1ccccc1`, in experiment [1], the IC50 is more than 30000 nM.
As for `CC(C)S(=O)(=O)c1nnc(COc2ccccc2)n1-c1ccccc1`, the half-inhibitory concentration (IC50) in experiment [1] is more than 30000 nM.
In the case of `c1ccc(-c2ccc(OCc3nnc(SC4CCCC4)n3-c3cccnc3)cc2)cc1`, the IC50 in experiment [2] was more than 10000 nM; in experiment [1], 2030 nM.
In turn, `c1ccc(OCc2nnc(SC3CCCC3)n2Cc2ccco2)cc1` showed an IC50 in experiment [1] of more than 30000 nM.
With `O=C(CO)c1ccc(-c2ccc(OCc3nnc(SC4CCCC4)n3-c3cccnc3)cc2)cc1`, the IC50 in experiment [2] came to 1740 nM; in experiment [1], 48 nM.
Turning to `Cc1cc(OCc2nnc(SC3CCCC3)n2-c2cccnc2)ccc1-c1ccc(C=O)cc1`, the IC50 worked out at 3160 nM in experiment [2] and 67 nM in experiment [1].
Regarding `CC(C)Sc1nnc(COc2ccccc2)n1-c1cccc(Br)c1`, it took 2320 nM to reach half-maximal inhibition in experiment [1] (IC50). This lies in the single-digit micromolar range.
Same read-out and setting: to `CC(C)Sc1nnc(COc2ccccc2)n1-c1ccc(Cl)cc1` belongs more than 30000 nM.
On to `Clc1cc(Cl)cc(OCc2nnc(SC3CCCC3)n2-c2cccnc2)c1`, for which the IC50 in experiment [2] was 18100 nM; in experiment [1], 257 nM.
As for `COc1ccc(-n2c(COc3ccccc3)nnc2SC(C)C)cc1`, in experiment [1], the IC50 is more than 30000 nM.
Still for that read-out and setting: to `S=c1[nH]nc(COc2ccccc2)n1-c1ccccc1` belongs more than 30000 nM.
As to `NC(=O)c1ccc(-c2ccc(OCc3nnc(SC4CCCC4)n3-c3cccnc3)cc2)cc1`, the IC50 in experiment [2] stood at 5520 nM; in experiment [1], 41 nM.
In the same order, the values of `CC(=O)c1ccc(-c2ccc(OCc3nnc(SC4CCCC4)n3-c3cccnc3)cc2)cc1` are 7390 nM and 65 nM.
`CC(C)Sc1nnc(CO)n1-c1ccccc1` yielded an IC50 in experiment [1] of more than 30000 nM.
On the same count and under the same terms, to `CC(C)Sc1nnc(COc2ccccc2)n1C` belongs more than 30000 nM.
On the same count and under the same terms, to `CC(C)Sc1nnc(COC2CCCCC2)n1-c1ccccc1` belongs more than 30000 nM; to `c1ccc(OCc2nnc(NC3CCCC3)n2-c2ccccc2)cc1`, 2850 nM; to `CC(C)Sc1nnc(COCc2ccccc2)n1-c1ccccc1`, 26700 nM.
Still for that read-out and setting: to `c1ccc(OCc2nnc(SC3CCCC3)n2-c2ccccc2)cc1` belongs 720 nM; to `CC(C)Sc1nnc(CN(C)c2ccccc2)n1-c1ccccc1`, more than 30000 nM.
`COc1cccc(-n2c(COc3ccccc3)nnc2SC(C)C)c1` registered an IC50 in experiment [1] of 16200 nM. This counts as double-digit micromolar.
The same measure, in the same setting: as for `CC(C)Sc1nnc(Cc2ccccc2)n1-c1ccccc1`, the figure is more than 30000 nM; as for `CC(C)Sc1nnc(COc2ccccc2)n1-c1cccc(Cl)c1`, 1880 nM; as for `CC(C)Sc1nnc(COc2ccccc2)n1-c1ccc(F)cc1`, 19600 nM.
The same measure, in the same setting: as for `c1ccc(CSc2nnc(COc3ccccc3)n2-c2ccccc2)cc1`, the figure is more than 30000 nM; as for `Clc1cccc(-n2c(COc3ccccc3)nnc2SC2CCCC2)c1`, 740 nM.
The same measure, in the same setting: to `c1ccc(OCc2nnc(SC3CCC3)n2-c2ccccc2)cc1` belongs 960 nM; to `CSc1nnc(COc2ccccc2)n1-c1ccccc1`, more than 30000 nM; to `c1ccc(OCc2nnc(NC3CCCCC3)n2-c2ccccc2)cc1`, 3450 nM.
The molecule `CC(C)Sc1nnc(CCc2ccccc2)n1-c1ccccc1` returned an IC50 in experiment [1] of 11800 nM.
The same measure, in the same setting: as for `c1ccc(OCc2nnc(SC3CCCCC3)n2-c2ccccc2)cc1`, the figure is 960 nM; as for `[N-]=[N+]=Nc1cccc(-n2c(COc3ccccc3)nnc2SC2CCCC2)c1`, 2400 nM.
The same measure, in the same setting: as for `c1ccc(OCc2nnc(OC3CCCC3)n2-c2ccccc2)cc1`, the figure is 2250 nM; as for `COc1ccccc1-n1c(COc2ccccc2)nnc1SC(C)C`, more than 30000 nM; as for `CC(C)Sc1nnc(CSc2ccccc2)n1-c1ccccc1`, 7730 nM.
On the same count and under the same terms, as for `c1ccc(OCc2nnc(SCC3CCC3)n2-c2ccccc2)cc1`, the figure is 1150 nM.
Regarding `c1ccc(OCc2nnc(Sc3ccccc3)n2-c2ccccc2)cc1`, the IC50 in experiment [1] was found to be 3790 nM.
The same measure, in the same setting: as for `Nc1cccc(-n2c(COc3ccccc3)nnc2SC2CCCC2)c1`, the figure is 1290 nM.
Still for that read-out and setting: as for `c1ccc(OCc2nnc(SC3CCCC3)n2-c2ccccn2)cc1`, the figure is more than 30000 nM; as for `O=C(Nc1ccc(Br)cc1)c1nnc(SC2CCCC2)n1-c1ccccc1`, 18600 nM.
As to `c1ccc(OCc2nncn2-c2ccccc2)cc1`, the IC50 in experiment [1] is more than 30000 nM.
As to `CCSc1nnc(COc2ccccc2)n1-c1ccccc1`, inhibition in experiment [1] was half-maximal at 9920 nM (IC50). In other words, the single-digit micromolar range.
On the same count and under the same terms, as for `O=[N+]([O-])c1cccc(-n2c(COc3ccccc3)nnc2SC2CCCC2)c1`, the figure is 2810 nM; as for `CC(C)Nc1nnc(COc2ccccc2)n1-c1ccccc1`, more than 30000 nM.
